What was measured:
[1] = target: T1, human LTA4 hydrolase (Homo sapiens, UniProt P09960); experiment: LTA4H Enzyme assay (peptidase, Arg-AMC cleavage); format: biochemical; settings: LTA4H enzyme 1 nM, Arg-AMC substrate 50 μM, room temperature 1 h, fluorescence 380/460 nm
T1 sequence (P09960 1-611): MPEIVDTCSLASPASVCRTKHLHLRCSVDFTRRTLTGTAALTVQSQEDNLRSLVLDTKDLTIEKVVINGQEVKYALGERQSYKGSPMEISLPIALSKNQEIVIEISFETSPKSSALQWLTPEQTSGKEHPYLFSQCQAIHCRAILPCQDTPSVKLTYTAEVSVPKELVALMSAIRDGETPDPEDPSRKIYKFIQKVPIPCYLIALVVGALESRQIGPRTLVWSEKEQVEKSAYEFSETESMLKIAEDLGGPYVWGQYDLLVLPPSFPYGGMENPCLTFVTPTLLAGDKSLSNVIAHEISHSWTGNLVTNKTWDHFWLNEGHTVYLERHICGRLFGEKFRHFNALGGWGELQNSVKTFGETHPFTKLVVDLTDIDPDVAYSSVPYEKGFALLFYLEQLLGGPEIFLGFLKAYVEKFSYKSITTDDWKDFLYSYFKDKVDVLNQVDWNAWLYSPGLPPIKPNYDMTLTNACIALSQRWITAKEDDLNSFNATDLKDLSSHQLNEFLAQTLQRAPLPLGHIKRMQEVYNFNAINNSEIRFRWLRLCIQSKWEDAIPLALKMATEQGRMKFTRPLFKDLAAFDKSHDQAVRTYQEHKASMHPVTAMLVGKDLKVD
Outline: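 Human LTA4H (1 nM final) incubated with compound and Arg-AMC (50 μM final) in 50 mM Tris-HCl pH 7.5, 100 mM KCl, 0.5% BSA, 1 h at room temperature. Product read as AMC fluorescence (ex 380/em 460 nm); IC50 reported.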

[2] = tested on: LTB4 synthesis in human whole blood; experiment: human whole blood (HWB) assay, inhibition of LTB4 production; format: cell-based; settings: heparinized human whole blood, calcimycin 20 μM stimulation, plasma LTB4
Outline: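 Plasma LTB4, quantified by HTRF immunoassay, is the read-out after calcimycin challenge (20 μM final, 30 min, 37 °C) of heparinized whole blood that had been pretreated with compound for 15 min at 37 °C; values given as IC50.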

SMILES	IC50 [1]	IC50 [2]
CC[C@@H](C)NCc1nc2cc(Oc3ccc(-c4ccn[nH]4)cc3)ccc2[nH]1 [Example 180, ((R)-sec-Butyl)-{5-[4-(2H-pyrazol-3-yl)-phenoxy]-1H-benzoimidazol-2-ylmethyl}-amine]	0.13 nM	150 nM
c1cc(-c2ccc(Oc3ccc4[nH]c(CNC5CCCOC5)nc4c3)cc2)[nH]n1 (centres unmarked) [Example 181, {5-[4-(2H-Pyrazol-3-yl)-phenoxy]-1H-benzoimidazol-2-ylmethyl}-(tetrahydro-pyran-3-yl)-amine]	0.21 nM	150 nM
CC1(C)COCCN1Cc1nc2cc(Oc3ccc(-c4ccn[nH]4)cc3)ccc2[nH]1 [Example 182, 2-(3,3-Dimethyl-moprholin-4-ylmethyl)-5-[4-(2H-pyrazol-3-yl)-phenoxy]-1H-benzoimidazole]	0.062 nM	150 nM
COCCN(Cc1nc2cc(Oc3ccc(-c4ccn[nH]4)cc3)ccc2[nH]1)C(C)C [Example 183, Isopropyl-(2-methoxy-ethyl)-{5-[4-(2H-pyrazol-3-yl)-phenoxy]-1H-benzoimidazol-2-ylmethyl}-amine]	0.17 nM	150 nM
CCCN(CCOC)Cc1nc2cc(Oc3ccc(-c4ccn[nH]4)cc3)ccc2[nH]1 [Example 184, (2-Methoxy-ethyl)-propyl-{5-[4-(2H-pyrazol-3-yl)-phenoxy]-1H-benzoimidazol-2-ylmethyl}-amine]	0.2 nM	150 nM
c1cc(-c2ccc(Oc3ccc4c(c3)OC(CNCC3CCOCC3)C4)cc2)[nH]n1 (centres unmarked) [Example 185, {6-[4-(2H-Pyrazol-3-yl)-phenoxy]-2,3-dihydro-benzofuran-2-ylmethyl}-(tetrahydro-pyran-4-ylmethyl)-amine]	0.45 nM	150 nM
COCCN(CCOC)Cc1nc2cc(Oc3ccc(-c4ccn[nH]4)cc3)ccc2[nH]1 [Example 186, Bis-(2-methoxy-ethyl)-{5-[4-(2H-pyrazol-3-yl)-phenoxy]-1H-benzoimidazol-2-ylmethyl}-amine]	0.23 nM	150 nM
O=C(C1CCN(CC2Cc3ccc(Oc4ccc(-c5ccn[nH]5)cc4)cc3O2)CC1)N1CCOCC1 (centres unmarked) [Example 187, Morpholin-4-yl-(1-{6-[4-(2H-pyrazol-3-yl)-phenoxy]-2,3-dihydro-benzofuran-2-ylmethyl}-piperidin-4-yl)-methanone]	0.31 nM	150 nM
c1cc(-c2ccc(Oc3ccc4[nH]c(CNC5CCCC5)nc4c3)cc2)[nH]n1 [Example 188, Cyclopentyl-{5-[4-(2H-pyrazol-3-yl)-phenoxy]-1H-benzoimidazol-2-ylmethyl}-amine]	0.13 nM	160 nM
COC[C@H](C)NCc1nc2cc(Oc3ccc(-c4ccn[nH]4)cc3)ccc2[nH]1 [Example 189, ((S)-2-Methoxy-1-methyl-ethyl)-{5-[4-(2H-pyrazol-3-yl)-phenoxy]-1H-benzoimidazol-2-ylmethyl}-amine]	0.23 nM	160 nM
O=C1OCCCN1C1CCN(Cc2ccc3cc(Oc4ccc(-c5ccn[nH]5)cn4)ccc3n2)CC1 [Example 190, 3-(1-{6-[5-(2H-Pyrazol-3-yl)-pyridin-2-yloxy]-quinolin-2-ylmethyl}-piperidin-4-yl)-[1,3]oxazinan-2-one]	0.53 nM	170 nM
CCNCc1nc2cc(Oc3ccc(-c4ccn[nH]4)cc3)ccc2[nH]1 [Example 191, Ethyl-{5-[4-(2H-pyrazol-3-yl)-phenoxy]-1H-benzoimidazol-2-ylmethyl}-amine]	0.18 nM	170 nM
CCN(CCO)Cc1nc2cc(Oc3ccc(-c4ccn[nH]4)cc3)ccc2[nH]1 [Example 192, 2-(Ethyl-{5-[4-(2H-pyrazol-3-yl)-phenoxy]-1H-benzoimidazol-2-ylmethyl}-amino)-ethanol]	0.17 nM	170 nM
CCOCC1CCN(Cc2nc3cc(Oc4ccc(-c5ccn[nH]5)cc4)ccc3[nH]2)CC1 [Example 193, 2-(4-Ethoxymethyl-piperidin-1-ylmethyl)-5-[4-(2H-pyrazol-3-yl)-phenoxy]-1H-benzoimidazole]	0.13 nM	170 nM
c1cc(-c2ccc(Oc3ccc4[nH]c(CN[C@H]5CCOC5)nc4c3)cc2)[nH]n1 [Example 194, {5-[4-(2H-Pyrazol-3-yl)-phenoxy]-1H-benzoimidazol-2-ylmethyl}-(S)-tetrahydro-furan-3-yl-amine]	0.18 nM	180 nM
OCC1CCCCN1Cc1nc2cc(Oc3ccc(-c4ccn[nH]4)cc3)ccc2[nH]1 (centres unmarked) [Example 195, (1-{5-[4-(2H-Pyrazol-3-yl)-phenoxy]-1H-benzoimidazol-2-ylmethyl}-piperidin-2-yl)-methanol]	0.14 nM	180 nM
FC(F)(F)C1CCN(Cc2nc3cc(Oc4ccc(-c5ccn[nH]5)cc4)ccc3[nH]2)C1 (centres unmarked) [Example 196, 5-[4-(2H-Pyrazol-3-yl)-phenoxy]-2-(3-trifluoromethyl-pyrrolidin-1-ylmethyl}-1H-benzoimidazole]	0.17 nM	180 nM
CN(C)C(=O)C1CCN(CC2Cc3ccc(Oc4ccc(-c5ccn[nH]5)cc4)cc3O2)CC1 (centres unmarked) [Example 197, 1-{6-[4-(2H-Pyrazol-3-yl)-phenoxy]-2,3-dihydro-benzofuran-2-ylmethyl}-piperidine-4-carboxylic acid dimethylamide]	0.46 nM	180 nM
O=C1CCCN1C1CCN(CC2Cc3ccc(Oc4ccc(-c5ccn[nH]5)cc4)cc3O2)CC1 (centres unmarked) [Example 198, 1-(1-{6-[4-(2H-Pyrazol-3-yl)-phenoxy]-2,3-dihydro-benzofuran-2-ylmethyl}-piperidin-4-yl)-pyrrolidin-2-one]	0.35 nM	180 nM
CCCN(CCO)Cc1nc2cc(Oc3ccc(-c4ccn[nH]4)cc3)ccc2[nH]1 [Example 199, 2-(Propyl-{5-[4-(2H-pyrazol-3-yl)-phenoxy]-1H-benzoimidazol-2-ylmethyl}-amino)-ethanol]	0.13 nM	190 nM
CC(=O)N[C@@H]1CCN(CCn2cc3cc(Oc4ccc(-c5ccn[nH]5)cc4)ccc3n2)C1 [Example 200, N-[(R)-1-(2-{5-[4-(2H-Pyrazol-3-yl)-phenoxy]-indazol-2-yl}-ethyl)-pyrrolidin-3-yl]-acetamide]	0.47 nM	190 nM
c1cc(-c2ccc(Oc3ccc4[nH]c(CC5CCOCC5)nc4c3)cc2)[nH]n1 [Example 202, 5-[4-(2H-Pyrazol-3-yl)-phenoxy]-2-(tetrahydro-pyran-4-ylmethyl)-1H-benzoimidazole]	0.32 nM	200 nM
O=C1OCCN1C1CCN(CC2Cc3ccc(Oc4ccc(-c5ccn[nH]5)cc4)cc3O2)CC1 (centres unmarked) [Example 203, 3-(1-{6-[4-(2H-Pyrazol-3-yl)-phenoxy]-2,3-dihydro-benzofuran-2-ylmethyl}-piperidin-4-yl)-oxazolidin-2-one]	0.77 nM	200 nM
OC1CCN(Cc2ccc3cc(Oc4ccc(-c5ccn[nH]5)cn4)ccc3n2)CC1 [Example 204, 1-{6-[5-(2H-Pyrazol-3-yl)-pyridin-2-yloxy]-quinolin-2-ylmethyl}-piperidin-4-ol]	0.98 nM	210 nM
CO[C@@H]1CCN(Cc2ccc3cc(Oc4ccc(-c5ccn[nH]5)cn4)ccc3n2)C1 [Example 205, 2-((R)-3-Methoxy-pyrrolidin-1-ylmethyl)-6-[5-(2H-pyrazol-3-yl)-pyridin-2-yloxy]-quinoline]	1.2 nM	210 nM

Source: patent US9403830B2, “Inhibitors of leukotriene production” (Boehringer Ingelheim International GmbH, priority 2012, dated 2016)
